Results taken from patent publication US20240316017A1, “NOVEL PYRIDINE DERIVATIVE COMPOUND AS RON INHIBITOR” (LG CHEM, LTD., priority 2021, published 2024).

Columns and labels:
[1] = target: RON (Homo sapiens, UniProt Q04912); assay: Evaluation of inhibitory activity against RON (TR-FRET kinase assay); assay type: biochemical; conditions: RON protein, ULight-labeled Poly GT substrate
Method: In order to measure the inhibitory activity of each of the compounds of Examples against RON, the IC50 of each of the compounds was measured using Time-resolved fluorescence energy transfer (TR-FRET).
(§1) Specifically, the compound was prepared to a concentration of 1 mM in 100% DMSO and was diluted 10 times in a stepwise manner through 3-fold dilution. The compound (2 ul) diluted in a stepwise manner was added to a 96-well-plate containing 48 ul of a 1× kinase reaction buffer (50 mM HEPES (pH 7.4), 0.01% Tween-20, 5 mM DTT, 0.5 mM Na3VO4, 2 mM EGTA, 10 mM MgCl2).
The RON protein was diluted to a concentration of 49.3 nM in a RON storage buffer (50 mM Tris-HCl (pH 7.5), 150 mM NaCl, 0.5 mM EDTA, 0.02% Triton X-100), and then diluted again to a concentration of 0.4 nM in a 1×kinase reaction buffer. As a substrate cocktail, a RON-specific substrate mixed solution (40 uM ULight-labeled Poly GT, 100 nM ATP) was prepared at a concentration 2 times the final reaction concentration.
(§2) Thereafter, a 384-well-plate was prepared, and 2.5 μl of each of the diluted compounds of Examples was added to a corresponding well of experimental group wells, and 2.5 μl of a 4% DMSO solution was dispensed into high control wells and low control wells.
(§3) Thereafter, 2.5 μL of 0.4 nM RON was dispensed into each of the high control wells and the experimental group wells, and 2.5 μL of the 1× kinase reaction buffer was added to the low control wells, and all the wells were centrifuged at room temperature for 40 seconds at 1,000 RPM, and then incubated at room temperature for 20-30 minutes. Then, 5 uL of the substrate cocktail (2×) was dispensed into each well, and all the wells were centrifuged at room temperature for 40 seconds at 1,000 RPM, and then incubated at room temperature for 60 minutes. Thereafter, 5 uL of 30 mM EDTA was added to each well to terminate the reaction, and all the wells were then incubated again at room temperature for 5 minutes. Thereafter, 5 uL of a 4× phosphotyrosine antibody (Perkin Elmer) containing europium was added to each well, and all the wells were then incubated at room temperature for 60 minutes. After the incubation, the 384-well-plate was read with the Vison plate reader. In this case, the excitation wavelength was 340 nm, and the emission wavelength was 620 nm and 665 nm. The IC50 value of each compound of Examples was derived using the GraphPd Prism7 program.

[2] = target: cMET (Homo sapiens, UniProt P08581); assay: Evaluation of inhibitory activity against MET (TR-FRET kinase assay); assay type: biochemical; conditions: cMET protein, TK peptide substrate
Chain of cMET (P08581 25-1390): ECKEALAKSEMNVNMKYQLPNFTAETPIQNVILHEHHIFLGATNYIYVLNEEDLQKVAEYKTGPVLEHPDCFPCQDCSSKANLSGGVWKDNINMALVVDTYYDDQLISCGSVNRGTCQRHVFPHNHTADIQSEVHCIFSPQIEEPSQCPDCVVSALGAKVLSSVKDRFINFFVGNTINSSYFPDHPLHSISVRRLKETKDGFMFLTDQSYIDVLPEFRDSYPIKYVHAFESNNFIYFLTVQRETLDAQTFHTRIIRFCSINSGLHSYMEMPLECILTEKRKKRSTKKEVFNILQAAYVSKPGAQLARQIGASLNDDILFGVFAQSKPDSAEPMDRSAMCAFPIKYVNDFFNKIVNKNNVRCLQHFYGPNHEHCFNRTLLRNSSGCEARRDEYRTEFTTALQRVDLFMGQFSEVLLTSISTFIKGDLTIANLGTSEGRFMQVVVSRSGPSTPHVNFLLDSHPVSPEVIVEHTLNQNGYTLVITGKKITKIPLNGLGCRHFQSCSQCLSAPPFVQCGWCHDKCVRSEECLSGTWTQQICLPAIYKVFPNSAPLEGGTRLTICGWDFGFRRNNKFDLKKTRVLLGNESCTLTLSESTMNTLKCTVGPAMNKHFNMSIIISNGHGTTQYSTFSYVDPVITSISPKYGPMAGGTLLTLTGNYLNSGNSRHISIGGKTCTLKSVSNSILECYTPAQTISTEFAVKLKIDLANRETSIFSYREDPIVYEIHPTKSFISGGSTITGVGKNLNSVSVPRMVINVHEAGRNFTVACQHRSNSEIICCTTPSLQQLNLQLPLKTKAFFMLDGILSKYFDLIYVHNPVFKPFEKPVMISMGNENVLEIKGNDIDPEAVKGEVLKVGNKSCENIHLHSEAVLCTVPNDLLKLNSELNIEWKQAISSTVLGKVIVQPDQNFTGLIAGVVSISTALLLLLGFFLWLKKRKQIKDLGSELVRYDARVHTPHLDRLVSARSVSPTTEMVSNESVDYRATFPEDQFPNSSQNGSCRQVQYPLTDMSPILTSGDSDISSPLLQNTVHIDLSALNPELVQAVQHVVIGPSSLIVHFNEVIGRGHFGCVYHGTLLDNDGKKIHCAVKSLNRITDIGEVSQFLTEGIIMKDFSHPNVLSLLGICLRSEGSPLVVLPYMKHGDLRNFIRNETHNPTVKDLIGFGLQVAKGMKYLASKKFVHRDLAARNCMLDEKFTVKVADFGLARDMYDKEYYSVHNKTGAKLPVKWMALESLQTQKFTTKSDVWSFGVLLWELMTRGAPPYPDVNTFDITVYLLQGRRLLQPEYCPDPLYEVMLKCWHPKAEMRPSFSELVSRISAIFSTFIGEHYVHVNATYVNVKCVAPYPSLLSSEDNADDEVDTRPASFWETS
Method: In addition, in order to measure the enzyme activity inhibition for cMET, the evaluation was performed in the same manner as the enzyme activity inhibition measurement experiment for RON.
as §1, with “7.4), 0.05% BSA, 0.005%” for “7.4), 0.01%”, “Tween-20, 1” for “Tween-20, 5”, “mM MnCl2, 20” for “mM Na3VO4, 2 mM EGTA, 10”
The cMET protein was diluted to a concentration of 263 nM in a cMET storage buffer (50 mM Tris-HCl (pH 7.5), 150 mM NaCl, 0.05% Brij35, 1 mM DTT, 10% Glycerol), and then diluted again to a concentration of 2 nM in a 1× kinase reaction buffer. As a substrate cocktail, a MET-specific substrate mixed solution (5 uM TK peptide, 10 mM ATP) was prepared at a concentration 2 times the final reaction concentration.
as §2
as §3, with “of 2” for “of 0.4”, “nM cMET” for “nM RON”, “the 1×kinase” for “the 1× kinase”, “of 90” for “of 30”

Chain of RON (Q04912 25-1400, species assumed): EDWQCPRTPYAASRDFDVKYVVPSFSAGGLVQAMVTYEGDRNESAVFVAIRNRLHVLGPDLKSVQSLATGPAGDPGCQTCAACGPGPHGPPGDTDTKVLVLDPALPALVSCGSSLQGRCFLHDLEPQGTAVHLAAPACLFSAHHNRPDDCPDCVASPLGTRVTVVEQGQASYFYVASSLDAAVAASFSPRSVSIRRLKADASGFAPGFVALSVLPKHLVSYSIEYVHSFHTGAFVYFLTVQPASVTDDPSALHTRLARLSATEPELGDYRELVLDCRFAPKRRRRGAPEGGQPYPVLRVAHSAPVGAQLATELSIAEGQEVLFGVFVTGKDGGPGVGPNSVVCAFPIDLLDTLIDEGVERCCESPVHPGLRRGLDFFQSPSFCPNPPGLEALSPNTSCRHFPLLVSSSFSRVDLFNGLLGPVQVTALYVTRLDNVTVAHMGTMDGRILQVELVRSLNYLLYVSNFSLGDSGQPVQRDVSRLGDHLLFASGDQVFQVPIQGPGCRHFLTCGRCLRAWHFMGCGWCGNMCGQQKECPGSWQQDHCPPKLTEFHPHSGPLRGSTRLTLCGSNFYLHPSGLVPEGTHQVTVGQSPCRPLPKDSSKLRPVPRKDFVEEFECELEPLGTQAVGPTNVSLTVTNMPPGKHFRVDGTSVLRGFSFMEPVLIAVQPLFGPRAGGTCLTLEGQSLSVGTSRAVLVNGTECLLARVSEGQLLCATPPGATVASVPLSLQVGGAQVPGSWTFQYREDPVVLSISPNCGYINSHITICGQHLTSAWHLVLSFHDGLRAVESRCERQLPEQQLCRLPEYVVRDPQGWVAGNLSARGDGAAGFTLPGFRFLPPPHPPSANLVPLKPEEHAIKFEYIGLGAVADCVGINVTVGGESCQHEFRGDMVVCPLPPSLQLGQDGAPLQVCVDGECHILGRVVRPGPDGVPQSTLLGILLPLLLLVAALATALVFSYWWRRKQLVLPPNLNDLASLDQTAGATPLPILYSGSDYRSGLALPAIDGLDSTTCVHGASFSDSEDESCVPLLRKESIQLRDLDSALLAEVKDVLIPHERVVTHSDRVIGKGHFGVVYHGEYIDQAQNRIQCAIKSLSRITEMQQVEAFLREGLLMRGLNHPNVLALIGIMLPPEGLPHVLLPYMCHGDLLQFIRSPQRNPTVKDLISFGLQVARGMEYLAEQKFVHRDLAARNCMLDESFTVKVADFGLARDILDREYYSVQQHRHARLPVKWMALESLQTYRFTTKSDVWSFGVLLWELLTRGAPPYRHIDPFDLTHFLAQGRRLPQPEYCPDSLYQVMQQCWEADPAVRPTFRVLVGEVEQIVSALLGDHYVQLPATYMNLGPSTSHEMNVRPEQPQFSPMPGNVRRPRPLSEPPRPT

IC50 [1] [nM] | IC50 [2] [nM] | SMILES
50 to 500 | > 5000 | Nc1cc(Oc2ccc(NC(=O)c3ncn(-c4ccccc4)c3C(F)(F)F)cc2F)ccn1 [Example 25]
50 to 500 | > 5000 | O=C(Nc1ccc(Oc2ccnc(NC(=O)C3CC3)c2)c(F)c1)c1ncn(-c2ccccc2)c1C(F)(F)F [Example 26, N-(4-((2-cyclopropanecarboxamido)pyridin-4-yl)oxy-3-fluorophenyl)-1-phenyl-5-(trifluoromethyl)-1H-imidazole-4-carboxamide]
50 to 500 | > 5000 | Nc1nccc(Oc2ccc(NC(=O)c3ncn(-c4ccccc4)c3C(F)(F)F)cc2F)c1N [Example 27]
50 to 500 | > 5000 | Nc1nccc(Oc2ccc(NC(=O)c3cnn(-c4ccccc4)c3C(F)(F)F)cc2F)c1N [Example 28]
< 50 | 500 to 5000 | Nc1nccc(Oc2ccc(NC(=O)c3ncn(-c4ccccc4)c3C(F)(F)F)cc2F)c1I [Example 29, N-(4-((2-amino-3-iodopyridin-4-yl)oxy)-3-fluorophenyl)-1-phenyl-5-(trifluoromethyl)-1H-imidazole-4-carboxamide]
50 to 500 | > 5000 | Nc1nccc(Oc2ccc(NC(=O)c3cnc(-c4ccccc4)s3)cc2F)c1Cl [Example 30, N-(4-((2-amino-3-chloropyridin-4-yl)oxy)-3-fluorophenyl)-2-phenylthiazole-5-carboxamide]
500 to 5000 | > 5000 | Cc1nc(-c2ccccc2)sc1C(=O)Nc1ccc(Oc2ccnc(N)c2Cl)c(F)c1 [Example 31, N-(4-((2-amino-3-chloropyridin-4-yl)oxy)-3-fluorophenyl)-4-methyl-2-phenylthiazole-5-carboxamide]
500 to 5000 | > 5000 | Nc1nccc(Oc2ccc(NC(=O)c3ncc(-c4ccccc4)s3)cc2F)c1Cl [Example 32, N-(4-((2-amino-3-chloropyridin-4-yl)oxy)-3-fluorophenyl)-5-phenylthiazole-2-carboxamide]
50 to 500 | > 5000 | Nc1nccc(Oc2ccc(NC(=O)c3ccc(-c4ccccc4)s3)cc2F)c1Cl [Example 33, N-(4-((2-amino-3-chloropyridin-4-yl)oxy)-3-fluorophenyl)-5-phenylthiophene-2-carboxamide]
50 to 500 | > 5000 | CCOC(=O)Nc1c(Oc2ccc(NC(=O)c3cnn(-c4ccccc4)c3C(F)(F)F)cc2F)ccnc1N [Example 34, Ethyl(2-amino-4-(2-fluoro-4-(1-phenyl-5-(trifluoromethyl)-1H-pyrazole-4-carboxamido)phenoxy)pyridin-3-yl)carbamate]
500 to 5000 | > 5000 | CCOC(=O)N(c1c(Oc2ccc(NC(=O)c3cnn(-c4ccccc4)c3CC)cc2F)ccnc1N)C(C)C [Example 35, Ethyl(2-amino-4-(4-(5-ethyl-1-phenyl-1H-pyrazole-4-carboxamido)-2-fluorophenoxy)pyridin-3-yl)(isopropyl)carbamate]
50 to 500 | 500 to 5000 | Nc1nccc(Oc2ccc(NC(=O)c3cnn(-c4ccccc4Cl)c3C(F)(F)F)cc2F)c1Cl [Example 36, N-(4-((2-amino-3-chloropyridin-4-yl)oxy)-3-fluorophenyl)-1-(2-chlorophenyl)-5-(trifluoromethyl)-1H-pyrazole-4-carboxamide]
< 50 | 500 to 5000 | Nc1nccc(Oc2ccc(NC(=O)c3cnn(-c4c(F)cccc4F)c3C(F)(F)F)cc2F)c1Cl [Example 37, N-(4-((2-amino-3-chloropyridin-4-yl)oxy)-3-fluorophenyl)-1-(2,6-difluorophenyl)-5-(trifluoromethyl)-1H-pyrazole-4-carboxamide]
50 to 500 | > 5000 | Nc1nccc(Oc2ccc(NC(=O)c3onc(-c4ccccc4)c3C(F)(F)F)cc2F)c1Cl [Example 38, N-(4-((2-amino-3-chloropyridin-4-yl)oxy)-3-fluorophenyl)-3-phenyl-4-(trifluoromethyl)isoxazole-5-carboxamide]
500 to 5000 | 500 to 5000 | Nc1nccc(Oc2ccc(NC(=O)c3ccn(-c4ccccc4)n3)cc2F)c1Cl [Example 39, N-(4-((2-amino-3-chloropyridin-4-yl)oxy)-3-fluorophenyl)-1-phenyl-1H-pyrazole-3-carboxamide]
> 5000 | > 5000 | Nc1nccc(Oc2ccc(NC(=O)c3cn(-c4ccccc4)nn3)cc2F)c1Cl [Example 40, N-(4-((2-amino-3-chloropyridin-4-yl)oxy)-3-fluorophenyl)-1-phenyl-1H-1,2,3-triazole-4-carboxamide]
50 to 500 | > 5000 | Cc1c(C(=O)Nc2ccc(Oc3ccnc(N)c3Cl)c(F)c2)nnn1-c1ccccc1 [Example 41, N-(4-((2-amino-3-chloropyridin-4-yl)oxy)-3-fluorophenyl)-5-methyl-1-phenyl-1H-1,2,3-triazole-4-carboxamide]
50 to 500 | 500 to 5000 | Cc1c(C(=O)Nc2ccc(Oc3ccnc(N)c3Cl)c(F)c2)nnn1-c1ccccc1F [Example 42, N-(4-((2-amino-3-chloropyridin-4-yl)oxy)-3-fluorophenyl)-1-(2-fluorophenyl)-5-methyl-1H-1,2,3-triazole-4-carboxamide]
< 50 | > 5000 | Nc1nccc(Oc2ccc(NC(=O)c3cnn(-c4ccccc4)c3C(F)(F)F)cc2F)c1I [Example 43, N-(4-((2-amino-3-iodopyridin-4-yl)oxy)-3-fluorophenyl)-1-phenyl-5-(trifluoromethyl)-1H-pyrazole-4-carboxamide]
50 to 500 | > 5000 | Nc1cc(Oc2ccc(NC(=O)c3cnn(-c4ccccc4)c3C(F)(F)F)cc2F)ccn1 [Example 44, N-(4-((2-aminopyridin-4-yl)oxy)-3-fluorophenyl)-1-phenyl-5-(trifluoromethyl)-1H-pyrazole-4-carboxamide]
50 to 500 | > 5000 | Nc1nccc(Oc2ccc(NC(=O)c3cnn(-c4ccccc4)c3C(F)(F)F)c(F)c2)c1Cl [Example 45, N-(4-((2-amino-3-chloropyridin-4-yl)oxy)-2-fluorophenyl)-1-phenyl-5-(trifluoromethyl)-1H-pyrazole-4-carboxamide]
50 to 500 | > 5000 | Nc1ncnc(Oc2ccc(NC(=O)c3cnn(-c4ccccc4)c3C(F)(F)F)cc2F)c1Cl [Example 46, N-(4-((6-amino-5-chloro-pyrimidin-4-yl)oxy)-3-fluorophenyl)-1-phenyl-5-(trifluoromethyl)-1H-pyrazole-4-carboxamide]
50 to 500 | > 5000 | CCc1c(C(=O)Nc2ccc(Oc3ncnc(N)c3Cl)c(F)c2)cnn1-c1ccccc1 [Example 47]
50 to 500 | > 5000 | Cc1nn(-c2ccccc2)c(C)c1C(=O)Nc1ccc(Oc2ncnc(N)c2Cl)c(F)c1 [Example 48, N-(4-((6-amino-5-chloro-pyrimidin-4-yl)oxy)-3-fluorophenyl)-3,5-dimethyl-1-phenyl-1H-pyrazole-4-carboxamide]
